Patent US7932284B2, “Indole sulfonamide modulators of progesterone receptors” (Eli Lilly and Company, priority 2006, dated 2011)

Legend:
[1] = biological target: T1, human AR (androgen receptor) (Homo sapiens, UniProt P10275); assay: AR competition binding assay (HEK293 cell lysate); settings: 0.36 nM 3H-methyltrienolone, 293-AR lysate
T1 construct: expressed in transfected cells; host or cells: HEK293
T1 sequence (P10275 1-920): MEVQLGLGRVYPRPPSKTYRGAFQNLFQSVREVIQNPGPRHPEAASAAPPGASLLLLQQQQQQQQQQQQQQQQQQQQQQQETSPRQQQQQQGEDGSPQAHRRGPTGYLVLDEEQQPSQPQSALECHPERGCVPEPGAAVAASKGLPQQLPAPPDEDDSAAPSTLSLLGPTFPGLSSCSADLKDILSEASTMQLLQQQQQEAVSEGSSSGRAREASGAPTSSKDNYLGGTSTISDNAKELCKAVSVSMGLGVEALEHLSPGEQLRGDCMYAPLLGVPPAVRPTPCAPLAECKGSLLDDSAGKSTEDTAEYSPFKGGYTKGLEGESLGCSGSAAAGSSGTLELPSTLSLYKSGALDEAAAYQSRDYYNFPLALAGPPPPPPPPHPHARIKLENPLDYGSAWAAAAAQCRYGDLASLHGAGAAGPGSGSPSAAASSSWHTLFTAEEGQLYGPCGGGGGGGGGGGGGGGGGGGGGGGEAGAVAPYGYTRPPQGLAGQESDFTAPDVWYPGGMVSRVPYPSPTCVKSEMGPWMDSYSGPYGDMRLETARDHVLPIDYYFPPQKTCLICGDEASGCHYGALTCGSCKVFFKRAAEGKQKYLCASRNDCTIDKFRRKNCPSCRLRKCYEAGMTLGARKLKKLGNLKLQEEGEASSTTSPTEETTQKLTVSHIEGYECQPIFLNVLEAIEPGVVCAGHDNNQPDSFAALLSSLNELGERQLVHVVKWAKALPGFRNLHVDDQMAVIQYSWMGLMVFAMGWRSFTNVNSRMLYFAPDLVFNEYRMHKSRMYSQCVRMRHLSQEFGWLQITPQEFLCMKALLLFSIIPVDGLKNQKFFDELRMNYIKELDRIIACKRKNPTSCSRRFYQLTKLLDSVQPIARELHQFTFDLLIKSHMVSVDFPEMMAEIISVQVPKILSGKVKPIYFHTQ
Method: (§1) Cell lysates from HEK293 cells overexpressing human GR (glucocorticoid receptor), AR (androgen receptor), MR (mineralocorticoid receptor) or PR (progesterone receptor) are used for competition binding assays to determine Ki values for compounds of interest. Briefly, competition binding assays are run in a buffer containing 20 mM HEPES, pH 7.6, 0.2 mM EDTA, 75 mM NaCl, 1.5 mM MgCl2, 20% glycerol, 20 mM sodium molybdate, 0.2 mM DTT, 20 ug/ml aprotinin, and 20 ug/ml leupeptin, using either 0.3 nM ^3H-dexamethasone for GR binding, 0.36 nM ^3H-methyltrienolone for AR binding, 0.25 nM ^3H-aldosterone for MR binding, or 0.29 nM ^3H-methyltrienolone for PR binding, and either 20 ug 293-GR lysate, 22 ug 293-AR lysate, 20 ug 293-MR lysate or 40 ug 293-PR lysate per well. Competing compounds are added at various concentrations in half-log increments. Non-specific binding is determined in the presence of 500 nM dexamethasone for GR binding, 500 nM aldosterone for MR binding, or 500 nM methyltrienolone for AR and PR binding. The binding reaction (140 μl) is incubated overnight at 4° C., then 70 μl of cold charcoal-dextran buffer (containing per 50 ml of assay buffer, 0.75 g of charcoal and 0.25 g of dextran) is added to each reaction. Plates are mixed 8 minutes on an orbital shaker at 4° C. Plates are then centrifuged at 3,000 rpm at 4° C. for 10 minutes. An aliquot of 120 μl of the mixture is transferred to another 96-well plate and 175 μl of Wallac Optiphase “Hisafe 3” scintillation fluid is added to each well. Plates are sealed and shaken vigorously on an orbital shaker. After an incubation of 2 hrs, plates are read in a Wallac Microbeta counter. […] The Kd for ^3H-dexamethasone for GR binding, ^3H-methyltrienolone for AR binding, ^3H-aldosterone for MR binding, or ^3H-methyltrienolone for PR binding, is determined by saturation binding. The IC50 values for compounds are converted to Ki using Cheng-Prusoff equation and the Kd determined by saturation binding assay.

[2] = biological target: T2, human MR (mineralocorticoid receptor) (Homo sapiens, UniProt P08235); assay: MR competition binding assay (HEK293 cell lysate); settings: 0.25 nM 3H-aldosterone, 293-MR lysate
T2 construct: expressed in transfected cells; host or cells: HEK293
T2 sequence (P08235 1-984): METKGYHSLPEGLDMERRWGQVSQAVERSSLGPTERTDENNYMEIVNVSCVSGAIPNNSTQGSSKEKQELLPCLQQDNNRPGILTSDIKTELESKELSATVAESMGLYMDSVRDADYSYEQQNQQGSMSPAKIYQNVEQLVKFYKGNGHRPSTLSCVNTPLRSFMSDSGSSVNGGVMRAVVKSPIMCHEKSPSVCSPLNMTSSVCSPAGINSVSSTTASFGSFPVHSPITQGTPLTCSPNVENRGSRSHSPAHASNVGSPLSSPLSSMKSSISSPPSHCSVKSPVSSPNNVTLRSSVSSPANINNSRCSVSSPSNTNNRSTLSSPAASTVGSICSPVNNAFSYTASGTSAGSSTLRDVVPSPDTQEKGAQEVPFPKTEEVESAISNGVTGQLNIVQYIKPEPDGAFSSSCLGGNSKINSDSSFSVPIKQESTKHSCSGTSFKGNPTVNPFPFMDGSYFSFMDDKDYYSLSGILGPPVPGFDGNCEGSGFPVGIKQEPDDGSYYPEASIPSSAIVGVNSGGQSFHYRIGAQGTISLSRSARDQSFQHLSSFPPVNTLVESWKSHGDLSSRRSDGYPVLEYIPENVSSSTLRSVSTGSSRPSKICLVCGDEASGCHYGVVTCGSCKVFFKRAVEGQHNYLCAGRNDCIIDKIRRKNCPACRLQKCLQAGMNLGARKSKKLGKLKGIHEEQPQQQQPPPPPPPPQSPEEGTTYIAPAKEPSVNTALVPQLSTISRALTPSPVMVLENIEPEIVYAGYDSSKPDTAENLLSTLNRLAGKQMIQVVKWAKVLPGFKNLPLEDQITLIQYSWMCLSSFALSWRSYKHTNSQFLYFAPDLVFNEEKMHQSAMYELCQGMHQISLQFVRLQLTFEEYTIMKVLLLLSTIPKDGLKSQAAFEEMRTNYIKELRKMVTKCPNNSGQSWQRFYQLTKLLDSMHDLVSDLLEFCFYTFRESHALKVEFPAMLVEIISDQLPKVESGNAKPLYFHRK
Method: as §1

Q: How did the Ki [1] turn out when `CC(C)n1cc(-c2ccc3c(c2)COC3=O)c2ccc(NS(C)(=O)=O)cc21` [Example 97, N-[1-Isopropyl-3-(1-oxo-1,3-dihydro-isobenzofuran-5-yl)-1H-indol-6-yl]-methanesulfonamide] was run?
A: The Ki was over 1000 nM.

Q: What about the Ki [2] of the same compound?
A: The Ki was over 1000 nM.

Q: Which results are given for `CCOC(=O)c1ccc(-c2cn(C(C)C)c3cc(NS(C)(=O)=O)ccc23)cc1` [Example 74, 4-(1-Isopropyl-6-methanesulfonylamino-1H-indol-3-yl)-benzoic acid ethyl ester]?
A: Ki [1]: > 1000 nM; Ki [2]: 100 to 500 nM

Q: Which results are given for `Cn1cc(-c2ccc([N+](=O)[O-])cc2)c2ccc(NS(C)(=O)=O)cc21` [Example 30, N-[1-Methyl-3-(4-nitro-phenyl)-1H-indol-6-yl]-methanesulfonamide]?
A: Ki [1]: > 1000 nM; Ki [2]: > 1000 nM

Q: Which results are given for `CC(C)n1cc(-c2ccc(C(N)=O)cc2)c2ccc(NS(C)(=O)=O)cc21` [Example 87, 4-(1-Isopropyl-6-methanesulfonylamino-1H-indol-3-yl)-benzamide]?
A: Ki [1]: > 1000 nM; Ki [2]: > 1000 nM

Q: With `CC(C)n1cc(-c2ccc(C#N)cc2)c2ccc(NS(C)(=O)=O)cc21` [Example 28, N-[3-(4-Cyano-phenyl)-1-isopropyl-1H-indol-6-yl]-methanesulfonamide] as the compound, how does the Ki [1] read?
A: Its Ki is over 1000 nM.

Q: And the Ki [2]?
A: Its Ki is over 1000 nM.

Q: `CC(C)n1cc(-c2ccc3sccc3c2)c2ccc(NS(C)(=O)=O)cc21` [Example 95, N-(3-Benzo[b]thiophen-5-yl-1-isopropyl-1H-indol-6-yl)-methanesulfonamide] was tested. Which Ki [1] did it give?
A: The Ki was 500 to 1000 nM.

Q: And the Ki [2]?
A: Its Ki is 500 to 1000 nM.

Q: Which results are given for `CC(C)n1cc(-c2ccc(C#N)cc2)c2ccc(NS(=O)(=O)N3CCOCC3)cc21` [Example 100, Morpholine-4-sulfonic acid [3-(4-cyano-phenyl)-1-isopropyl-1H-indol-6-yl]-amide]?
A: Ki [1]: > 1000 nM; Ki [2]: > 1000 nM

Q: Which results are given for `CS(=O)(=O)Nc1ccc2c(-c3ccc(C#N)cc3)cn(C3CCCC3)c2c1` [Example 63, N-[3-(4-Cyano-phenyl)-1-cyclopentyl-1H-indol-6-yl]-methanesulfonamide]?
A: Ki [1]: > 1000 nM; Ki [2]: > 1000 nM

Q: How did the Ki [1] turn out when `COc1ccc(-c2cn(C(C)C)c3cc(NS(C)(=O)=O)ccc23)cn1` [Example 88, N-[1-Isopropyl-3-(6-methoxy-pyridin-3-yl)-1H-indol-6-yl]-methanesulfonamide] was run?
A: The Ki was over 1000 nM.

Q: And the Ki [2]?
A: Its Ki is over 1000 nM.

Q: What does the source list for `CC(C)n1cc(-c2ccc(O)cc2)c2ccc(NS(C)(=O)=O)cc21` [Example 93, N-[3-(4-Hydroxy-phenyl)-1-isopropyl-1H-indol-6-yl]-methanesulfonamide]?
A: Ki [1]: 100 to 500 nM; Ki [2]: 100 to 500 nM

Q: What does the source list for `CC(C)n1cc(-c2ccc(C#N)c(F)c2)c2ccc(NS(C)(=O)=O)cc21` [Example 38, N-[3-(4-Cyano-3-fluoro-phenyl)-1-isopropyl-1H-indol-6-yl]-methanesulfonamide]?
A: Ki [1]: 500 to 1000 nM; Ki [2]: 500 to 1000 nM

Q: For `CC(C)n1cc(-c2ccc(C#N)s2)c2ccc(NS(C)(=O)=O)cc21` [Example 43, N-[3-(5-Cyano-thiophen-2-yl)-1-isopropyl-1H-indol-6-yl]-methanesulfonamide], which Ki [1] is on record?
A: Its Ki is 100 to 500 nM.

Q: And the Ki [2]?
A: The Ki was 100 to 500 nM.

Q: Which results are given for `Cn1cc(-c2ccc(C#N)cc2)c2ccc(NS(=O)(=O)c3cccs3)cc21` [Example 32, Thiophene-2-sulfonic acid [3-(4-cyano-phenyl)-1-methyl-1H-indol-6-yl]-amide]?
A: Ki [1]: > 1000 nM; Ki [2]: > 1000 nM

Q: Which Ki [1] does the source give for `CC(C)n1cc(-c2ccc(C#N)cc2)c2ccc(NS(=O)(=O)C(F)(F)F)cc21` [Example 98, N-[3-(4-Cyano-phenyl)-1-isopropyl-1H-indol-6-yl]-C,C,C-trifluoro-methanesulfonamide] here?
A: The Ki was over 1000 nM.

Q: What about the Ki [2] of the same compound?
A: The Ki was over 1000 nM.

Q: How did the Ki [1] turn out when `CC(C)n1cc(-c2ccc3c(cnn3C)c2)c2ccc(NS(C)(=O)=O)cc21` [Example 107, N-[1-Isopropyl-3-(1-methyl-1H-indazol-5-yl)-1H-indol-6-yl]-methanesulfonamide] was run?
A: The Ki was over 1000 nM.

Q: What about the Ki [2] of the same compound?
A: The Ki was over 1000 nM.

Q: For `Cn1cc(-c2ccc(C#N)cc2)c2ccc(NS(C)(=O)=O)cc21` [Example 25, N-[3-(4-Cyano-phenyl)-1-methyl-1H-indol-6-yl]-methanesulfonamide], which Ki [1] is on record?
A: The Ki was over 1000 nM.

Q: And the Ki [2]?
A: The Ki was over 1000 nM.

Q: What does the source list for `CC(C)n1cc(-c2ccc(C=NO)cc2)c2ccc(NS(C)(=O)=O)cc21` [Example 94, N-{3-[4-(Hydroxyimino-methyl)-phenyl]-1-isopropyl-1H-indol-6-yl}-methanesulfonamide]?
A: Ki [1]: 100 to 500 nM; Ki [2]: 500 to 1000 nM

Q: Which Ki [1] does the source give for `CS(=O)(=O)Nc1ccc2c(-c3ccc(C#N)cc3)cn(Cc3ccccc3)c2c1` [Example 72, N-[1-Benzyl-3-(4-cyano-phenyl)-1H-indol-6-yl]-methanesulfonamide] here?
A: Its Ki is over 1000 nM.

Q: What about the Ki [2] of the same compound?
A: Its Ki is under 50 nM.

Q: Which results are given for `CC(C)n1cc(-c2ccccc2)c2ccc(NS(C)(=O)=O)cc21` [Example 85, N-(1-Isopropyl-3-phenyl-1H-indol-6-yl)-methanesulfonamide]?
A: Ki [1]: 100 to 500 nM; Ki [2]: 500 to 1000 nM

Q: `CS(=O)(=O)Nc1ccc2c(-c3ccc(C#N)cc3)cn(CC3CCCCC3)c2c1` [Example 77, N-[3-(4-Cyano-phenyl)-1-cyclohexylmethyl-1H-indol-6-yl]-methanesulfonamide] was tested. Which Ki [1] did it give?
A: The Ki was 100 to 500 nM.

Q: What about the Ki [2] of the same compound?
A: Its Ki is 100 to 500 nM.

Q: How did the Ki [1] turn out when `CSc1ccc(-c2cn(C(C)C)c3cc(NS(C)(=O)=O)ccc23)cc1` [Example 83, N-[1-Isopropyl-3-(4-methylsulfanyl-phenyl)-1H-indol-6-yl]-methanesulfonamide] was run?
A: The Ki was over 1000 nM.

Q: What about the Ki [2] of the same compound?
A: The Ki was 500 to 1000 nM.

Q: How did the Ki [1] turn out when `CC(C)Cn1cc(-c2ccc(C#N)cc2)c2ccc(NS(C)(=O)=O)cc21` [Example 29, N-[3-(4-Cyano-phenyl)-1-isobutyl-1H-indol-6-yl]-methanesulfonamide] was run?
A: Its Ki is 100 to 500 nM.

Q: And the Ki [2]?
A: Its Ki is 500 to 1000 nM.

Q: Which results are given for `CC(C)n1cc(-c2ccc(Cl)cc2)c2ccc(NS(C)(=O)=O)cc21` [Example 36, N-[3-(4-Chloro-phenyl)-1-isopropyl-1H-indol-6-yl]-methanesulfonamide]?
A: Ki [1]: 500 to 1000 nM; Ki [2]: > 1000 nM
